# Data taken from ChEMBL document CHEMBL5729357, “Isothiazolo[5,4-D]pyrimidine compound as IRAK4 inhibitor” (2022).
# Target: T1, Interleukin-1 receptor-associated kinase 4 (Homo sapiens, UniProt Q9NWZ3)
# T1 sequence (Q9NWZ3 whole entry): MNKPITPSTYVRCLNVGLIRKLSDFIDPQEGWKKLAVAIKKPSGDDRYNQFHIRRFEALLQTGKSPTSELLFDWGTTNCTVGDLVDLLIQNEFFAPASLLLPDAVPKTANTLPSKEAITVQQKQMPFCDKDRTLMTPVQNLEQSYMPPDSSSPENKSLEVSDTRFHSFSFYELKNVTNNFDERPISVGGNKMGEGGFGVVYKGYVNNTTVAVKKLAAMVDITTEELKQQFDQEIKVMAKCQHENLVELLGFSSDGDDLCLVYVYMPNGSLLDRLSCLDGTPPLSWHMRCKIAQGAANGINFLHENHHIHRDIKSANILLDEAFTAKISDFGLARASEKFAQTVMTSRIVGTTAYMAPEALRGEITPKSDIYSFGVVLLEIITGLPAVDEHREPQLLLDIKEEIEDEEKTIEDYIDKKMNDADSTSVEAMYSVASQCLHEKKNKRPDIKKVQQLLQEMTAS
# Test: In Vitro Enzymatic Activity Evaluation: The inhibitory activity of the test compounds against human IRAK4 was evaluated by measuring IC50 values in a 33P-labeled kinase activity assay (Reaction Biology Corp).Buffer conditions: 20 mM Hepes (pH 7.5), 10 mM MgCl2, 1 mM EGTA, 0.02% Brij35, 0.02 mg/mL BSA, 0.1 mM Na3VO4, 2 mM DTT, 1% DMSO.Procedures: The test compound was dissolved in DMSO at room temperature to prepare a 10 mM solution for later use. The substrate was dissolved in fresh buffer, to which the kinase was added and mixed well. The DMSO solution containing the test compound was added to the above mixed reaction system by an acoustic technique (Echo 550). The concentrations of the compounds in reaction system were 10 μM, 3.33 μM, 1.11 μM, 0.370 μM, 0.123 μM, 41.2 nM, 13.7 nM, 4.57 nM, 1.52 nM, and 0.508 nM. After 15 minutes of incubation, the reaction was started by adding 33P-ATP (activity: 0.01 μCi/μL; the corresponding concentration is listed in Table 1). Supplier's catalog number, lot number and concentration information in the reaction system for IRAK4 and its substrate are listed in Table 1. After 120 minutes of reaction at room temperature, the resulting solution was loaded on P81 ion exchange chromatography paper sheet (Whatman #3698-915). […]
row,Structure (SMILES),IC50 [nM]
1,Cc1nsc2nc(Nc3cnn(C4CCOCC4)c3)nc(N[C@H]3CC[C@H](N4C[C@H]5C[C@@H]4CN5C(C)C)CC3)c12,231
2,Cc1nsc2nc(Nc3cnn(C4(C)COC4)c3)nc(N[C@H]3CC[C@H](N4CCOCC4)CC3)c12,13.5
